Source: ChEMBL document CHEMBL2321784, “Discovery of 5-benzyl-3-phenyl-4,5-dihydroisoxazoles and 5-benzyl-3-phenyl-1,4,2-dioxazoles as potent firefly luciferase inhibitors” (J Med Chem, 2013)

Experiments:
[1] = target: Luciferin 4-monooxygenase (Photinus pyralis) (UniProt P08659); assay: Inhibition of recombinant firefly luciferase at 1 nM after 20 mins by luminescence assay
[2] = target: Luciferin 4-monooxygenase (Photinus pyralis) (UniProt P08659); assay: Inhibition of recombinant firefly luciferase at 10 uM after 20 mins by luminescence assay
[3] = target: Luciferin 4-monooxygenase (Photinus pyralis, UniProt P08659); assay: Inhibition of recombinant firefly luciferase after 20 mins by luminescence assay
Chain of Luciferin 4-monooxygenase (P08659 whole entry): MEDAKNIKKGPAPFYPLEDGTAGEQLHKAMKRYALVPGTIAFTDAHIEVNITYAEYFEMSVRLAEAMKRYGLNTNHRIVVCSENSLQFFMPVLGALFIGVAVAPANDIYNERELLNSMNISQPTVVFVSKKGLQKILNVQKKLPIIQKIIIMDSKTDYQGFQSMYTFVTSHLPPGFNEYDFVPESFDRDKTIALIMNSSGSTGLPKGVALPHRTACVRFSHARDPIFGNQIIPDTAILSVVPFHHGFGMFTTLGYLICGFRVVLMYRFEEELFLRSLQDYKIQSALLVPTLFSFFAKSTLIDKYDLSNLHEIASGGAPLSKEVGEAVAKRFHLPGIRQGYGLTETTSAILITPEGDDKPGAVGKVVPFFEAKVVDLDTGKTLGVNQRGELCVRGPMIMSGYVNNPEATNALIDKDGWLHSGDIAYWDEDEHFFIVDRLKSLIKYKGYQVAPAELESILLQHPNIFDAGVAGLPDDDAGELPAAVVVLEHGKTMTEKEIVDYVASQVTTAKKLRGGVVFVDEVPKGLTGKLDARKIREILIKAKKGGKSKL

Chain of Luciferin 4-monooxygenase (Photinus pyralis) (P08659 whole entry): as above

Compound: COc1ccccc1C1=NO[C@H](Cc2ccccc2)C1
- inhibition [1]: 51.7%
- inhibition [2]: 99.4%
- IC50 [3]: 0.912 nM

Compound: c1ccc(C[C@H]2CC(c3ccc4ccccc4c3)=NO2)cc1
- inhibition [1]: 4.9%
- inhibition [2]: 31.5%
- pIC50 [3]: > 5

Compound: Oc1ccc(C2=NO[C@H](Cc3ccccc3)C2)cc1
- inhibition [1]: 13.1%
- inhibition [2]: 93.3%
- IC50 [3]: 316 nM

Compound: Fc1ccccc1C1=NOC(Cc2ccccc2)O1 (racemic)
- inhibition [1]: 38.8%
- inhibition [2]: 98%
- IC50 [3]: 2.82 nM

Compound: COc1ccc(C2=NO[C@H](Cc3cccc(OC)c3)C2)cc1
- inhibition [1]: 43.8%
- inhibition [2]: 98.7%
- IC50 [3]: 1.17 nM

Compound: COc1ccc(C2=NO[C@@H](Cc3ccccc3OC)C2)cc1
- inhibition [1]: 6.1%
- inhibition [2]: 67.1%
- IC50 [3]: 2190 nM

Compound: COc1ccc(C2=NOC(C)(Cc3ccccc3)C2)cc1 (racemic)
- inhibition [1]: 20.3%
- inhibition [2]: 97.6%
- IC50 [3]: 21.9 nM

Compound: Clc1ccccc1C1=NOC(Cc2ccccc2)O1 (racemic)
- inhibition [1]: 68.5%
- inhibition [2]: 99.6%
- IC50 [3]: 0.525 nM

Compound: Oc1ccc(C2=NO[C@@H](Cc3ccccc3)C2)cc1
- inhibition [1]: 5.3%
- inhibition [2]: 42.8%
- pIC50 [3]: > 5

Compound: N#Cc1ccc(C2=NO[C@H](Cc3ccccc3)C2)cc1
- inhibition [1]: 53.6%
- inhibition [2]: 99.2%
- IC50 [3]: 0.891 nM

Compound: Oc1ccccc1C1=NO[C@@H](Cc2ccccc2)C1
- inhibition [1]: 8.9%
- inhibition [2]: 79.7%
- IC50 [3]: 1120 nM

Compound: COc1ccc(C2=NO[C@H](Cc3ccccc3OC)C2)cc1
- inhibition [1]: 46.5%
- inhibition [2]: 98.8%
- IC50 [3]: 1.82 nM

Compound: COc1ccccc1C1=NO[C@@H](Cc2ccccc2)O1
- inhibition [1]: 5%
- inhibition [2]: 63.3%
- IC50 [3]: 4270 nM

Compound: N#Cc1ccc(C2=NO[C@@H](Cc3ccccc3)C2)cc1
- inhibition [1]: 14.7%
- inhibition [2]: 88.3%
- IC50 [3]: 331 nM

Compound: Fc1cccc(C2=NO[C@H](Cc3ccccc3)C2)c1
- inhibition [1]: 61.6%
- inhibition [2]: 98.2%
- IC50 [3]: 0.955 nM

Compound: Fc1ccccc1C1=NO[C@H](Cc2ccccc2)C1
- inhibition [1]: 57.9%
- inhibition [2]: 99.3%
- IC50 [3]: 0.955 nM

Compound: COc1cccc(C2=NO[C@H](Cc3ccccc3)C2)c1
- inhibition [1]: 65.9%
- inhibition [2]: 99.4%
- IC50 [3]: 0.398 nM

Compound: c1ccc(C[C@H]2CC(c3ccccc3)=NO2)cc1
- inhibition [1]: 6.5%
- inhibition [2]: 94.9%
- IC50 [3]: 174 nM

Compound: COc1ccc(C2=NO[C@@H](Cc3ccccc3)C2)cc1
- inhibition [1]: 6.4%
- inhibition [2]: 68%
- IC50 [3]: 2450 nM

Compound: O=[N+]([O-])c1ccc(C2=NOC(Cc3ccccc3)C2)cc1 (racemic)
- inhibition [1]: 63.9%
- inhibition [2]: 96.4%
- IC50 [3]: 0.741 nM

Compound: Oc1cccc(C2=NO[C@H](Cc3ccccc3)C2)c1
- inhibition [1]: 47%
- inhibition [2]: 99.7%
- IC50 [3]: 0.832 nM

Compound: COc1ccc(C[C@@H]2CC(c3ccc(OC)cc3)=NO2)cc1
- inhibition [1]: 3.1%
- inhibition [2]: 37.4%
- pIC50 [3]: > 5

Compound: c1ccc(C[C@H]2CC(c3cccc4ccccc34)=NO2)cc1
- inhibition [1]: 5.5%
- inhibition [2]: 41.5%
- pIC50 [3]: > 5

Compound: Oc1cccc(C2=NO[C@@H](Cc3ccccc3)C2)c1
- inhibition [1]: 6.7%
- inhibition [2]: 71.5%
- IC50 [3]: 2190 nM

Compound: Fc1ccc(C2=NO[C@H](Cc3ccccc3)C2)cc1
- inhibition [1]: 76.8%
- inhibition [2]: 99.5%
- IC50 [3]: 0.309 nM

Compound: CCc1ccc(C[C@H]2CC(c3ccc(Cl)cc3)=NO2)cc1
- inhibition [1]: 2.5%
- inhibition [2]: 50.2%
- IC50 [3]: 8710 nM

Compound: COc1ccccc1C1=NO[C@H](Cc2ccccc2)O1
- inhibition [1]: 48.3%
- inhibition [2]: 98.2%
- IC50 [3]: 2.14 nM

Compound: COc1ccc(C2=NO[C@H](Cc3ccc(F)cc3)C2)cc1
- inhibition [1]: 26.7%
- inhibition [2]: 100%
- IC50 [3]: 10.5 nM

Compound: COc1ccc(C2=NO[C@H](CCc3ccccc3)C2)cc1
- inhibition [1]: 30.5%
- inhibition [2]: 96%
- IC50 [3]: 13.8 nM

Compound: Fc1ccc(C[C@H]2CC(c3ccc(Cl)cc3)=NO2)cc1
- inhibition [1]: 1.4%
- inhibition [2]: 86.8%
- IC50 [3]: 603 nM
